Test results: patent US20240336617A1, “Substituted Bimane Compounds and Methods of Use Thereof” (THE TRUSTEES OF THE UNIVERSITY OF PENNSYLVANIA, priority 2023, published 2024)

Legend:
[1] = molecular target: T1, αS fibrils (Homo sapiens, UniProt P37840); assay: Fluorescent QY measurements with αS fibrils; assay type: physicochemical; conditions: for increase in QY with αS fibrils: presence versus absence of αS fibrils; for Relative Brightness: ratio of ε•QY in the presence and absence of PFFs; for increase in brightness in the presence of PFFs: αS PFFs
T1 construct: intein-His6 (C, cleaved yes); made in house; host or cells: Escherichia coli BL21
Protocol: (§1) For each QY measurement, the incident excitation light spectrum was collected with 100 μL of probes (100 μM) in PBS buffer. After measuring the incident light intensity, probes (7j-7m) were added to the αS fibrils (100 μM) from a concentrated stock solution (10 mM in DMSO) to a final concentration of 100 μM and the new spectrum (fluorescence intensity and new incident light intensity) was collected. Using the JASCO Quantum Yield Software, the dye QY was calculated by dividing the dye fluorescence intensity by the difference in incident light intensity in the presence and absence of fibrils.
as §1, with “[…]” for “μL”, “(5j and 5k)” for “(7j-7m)”

[2] = molecular target: T1, αS fibrils; assay: Fluorescence lifetime measurements of probes with αS fibrils; assay type: physicochemical; conditions: for fluorescence lifetime when bound to PFFs: 100 μM αS PFFs; for Fluorescence Lifetime: 100 μM dye and PFFs; for Lifetime: with αS fibrils in PBS buffer, probe and αS fibrils 100 μM
Protocol: TCSPC measurements of fluorescence lifetime decays for 100 μM dyes in the presence of 100 μM αS fibrils were collected with the PTI Quantamaster™ 40 using a pulsed LED with a maximum emission at 486 nm. Fluorescence emission was collected at the indicated wavelength for each dye with 20 nm slit widths. The IRF was collected under identical conditions. Data analysis was performed with FluoFit software using an exponential decay model.

[3] = Absorbance measurements (UV-Vis); conditions: for Absorbance Wavelength: ACN:PBS buffer (50:50 v/v); for λabs, maximum absorption wavelength: absence of αS PFFs (−), dye 10 μM; for λabs: ACN/PBS
Protocol: Samples were individually diluted to the final concentration of 25 μM (500 μL) using 50:50 acetonitrile in phosphate buffered saline (ACN/PBS). The absorbance spectrum of each derivative (150 μL) was measured on a Thermo Scientific Genesys 150 UV-Vis spectrometer, using 50:50 ACN/PBS as a blank.

[4] = Fluorescence (emission) measurements; assay type: physicochemical; conditions: for Emission λem: Table S12; for maximum emission wavelength (λem): 50:50 ACN/PBS, excitation at λabs;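 as to all read-outs here: fluorescence emission spectra recorded on a spectrofluorometer, with each compound excited at its own absorption maximum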
Protocol: The fluorescence spectrum of each derivative (150 μL) was measured on a Photon Technology International (PTI) QuantaMaster™ 40 fluorescence spectrometer by excitation at the maximum absorption wavelength for each compound.
The fluorescence spectrum of each derivative (150 μL) was measured on a Photon Technology International (PTJ) QuantaMaster™ 40 fluorescence spectrometer by excitation at the maximum absorption wavelength for each compound.

[5] = Fluorescent quantum yield (QY) measurements; assay type: physicochemical; conditions: for Fluorescence QY: ACN/PBS buffer (1:1 v/v); for Fluorescence quantum yield / QY: in ACN
Procedure, shortened: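 Fluorescence quantum yield was measured for each dye by first recording the incident excitation light spectrum with 1 mL of solvent. JASCO Quantum Yield Software then computed QY as the dye's fluorescence intensity divided by the drop in incident light intensity between dye-absent and dye-present samples. A full incident excitation spectrum with this setup needs an excitation wavelength of at least 360 nm.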

[6] = Molar absorptivity determination; assay type: physicochemical; conditions: for E, molar absorptivity (ε): absence of αS PFFs (−), measured at λabs;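 as to all read-outs here: molar absorptivity derived from UV-Vis absorbance spectra recorded for each derivative on a spectrometer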
Protocol: The absorbance spectrum of each derivative (150 μL) was measured on a Thermo Scientific Genesys 150 UV-Vis spectrometer, using 50:50 ACN/PBS as a blank.
Molar absorptivity determination. […] The absorbance spectrum of each derivative (150 μL) was measured on a Thermo Scientific Genesys 150 UV-Vis spectrometer, using 50:50 ACN/PBS as a blank.

[7] = molecular target: T1, αS fibrils; assay: Probe binding (Kd) measurements with αS fibrils; conditions: 100 μM αS PFFs; probe 10 nM-10 μM
Protocol: (§2) αS fibrils (100 μM) in PBS buffer were incubated with varying 7k, 7l, and 7m concentrations (0, 0.01, 0.1, 0.5, 1, 3, 5, 7, and 10 μM) from concentrated 10 mM DMSO stock solutions in Greiner 96 well flat black […] plates at 37° C. with shaking at 500 rpm for 15 min in an IKA MS3 control orbital shaker (Wilmington, NC, USA). After 15 min incubation, fluorescence intensity measurements were obtained with a Tecan Spark plate reader (Mannedorf, Switzerland) by excitation with λex/λem=424/570 nm for 7k, λex/λem=463/580 nm for 7l, and λex/λem=484/620 nm for 7m, using the following parameters: excitation and emission bandwidth 5 nm, delay time 0 μs, integration time 40 μs. Averages and standard deviations were calculated from at least 3 independent measurements at each probe concentration. The resulting binding curve was fit to the following equation (modified from the One site—Total, accounting for ligand depletion model) in Graphpad Prism 9 (San Diego, CA, USA), from which the Kd was determined.
Fluorescence Spectra with αS Fibrils
as §2, with “5k” for “7k, 7l, and 7m”, “with” for “with λex/λem=424/570 nm for 7k,”, “5k,” for “7l, and λex/λem=484/620 nm for 7m,”

[8] = tested on: αS fibrils versus Aβ1-42 fibrils; assay: Amyloid selectivity by plate reader, αS versus Aβ1-42 fibrils; assay type: binding; set-up: fluorescence turn-on with αS relative to Aβ1-42: dose or concentration left out as unconfirmed; conditions: for fluorescence turn on with αS relative to Aβ1-42: 5 μM fibril concentrations, probe 1 μM
Protocol: (§3) Experiments were performed on the Tecan Spark in Greiner 96 well flat black ½ area plates using the following parameters: excitation and emission band widths 5 nm, lag time 0 μs, integration time 40 μs. A 10 mM DMSO stock solution of probes (7j-7m) and 100 μM stock of αS fibrils were used in the study described herein.

[9] = tested on: αS fibrils versus tau fibrils; assay: Amyloid selectivity by plate reader, αS versus tau fibrils; assay type: binding; set-up: fluorescence turn-on with αS relative to tau: dose or concentration left out as unconfirmed; conditions: for fluorescence turn on with αS relative to tau: 5 μM fibril concentrations, probe 1 μM
Protocol: as §3

[10] = presence of αS PFFs (+), 100 μM dye and PFFs
[11] = presence of αS PFFs, 100 μM dye and PFFs
[12] = λex/λem = 435/575 nm for 5j and 463/580 nm for 5k
[13] = 25 μM in ACN/PBS buffer (1:1 v/v), pH 7.4
[14] = ACN/PBS buffer (1:1 v/v), pH 7.4
[15] = in ACN, at maximum absorption wavelength

Row | Fluorescence QY ([1]; absence of αS PFFs, 100 μM dye) [%] | Fluorescence QY [1, 11] [%] | Relative Brightness [1] | Fluorescence Lifetime ([2]; presence of αS PFFs) [ns] | Lifetime [2] [ns] | Absorbance λmax ([3]; 25 μM in ACN) [nm] | Absorbance λmax [3, 13] [nm] | Emission λmax ([4]; 25 μM in ACN) [nm] | Emission λmax [4, 13] [nm] | maximum emission wavelength (λem) [4] [nm] | Stokes shift ([4]; ACN/PBS buffer (1:1 v/v)) [nm] | Stokes shift ([4]; in ACN) [nm] | Fluorescence QY [5] [%] | Fluorescence quantum yield [5] [%] | QY [5] | Molar Absorptivity (ε) [6, 14] [M⁻¹ cm⁻¹] | Molar Absorptivity (ε) [6, 15] [M⁻¹ cm⁻¹] | Kd [7] [nM] | Structure (SMILES) | fluorescence turn on with αS relative to Aβ1-42 [8] [fold] | fluorescence turn on with αS relative to tau [9] [fold] | other results
1 | 0.17 | 20.7 | 364 | 1.90 | 1.90 ± 0.01 | 378 | 385 | 540 | 583 | 583 | 198 | 162 | 0.7 | 1.5 | 2% | 30834 | 32091 | – | Cc1c(C)n2c(/C=C/c3ccc(N)cc3)c(C)c(=O)n2c1=O [Compound 7j, (E)-3-(4-aminostyryl)-2,5,6-trimethyl-1H,7H-pyrazolo[1,2-a]pyrazole-1,7-dione] | – | – | Fluorescence QY [1, 10]: 20.7%; increase in QY with αS fibrils [1]: 122 fold; Relative Brightness [1, 12]: 364; increase in brightness in the presence of PFFs [1]: 364 fold; fluorescence lifetime when bound to PFFs [2]: 1.90 ns; Fluorescence Lifetime ([2]; presence of αS PFFs (+)): 1.90 ns; Absorbance Wavelength ([3]; Table S14): 385 nm; λabs, maximum absorption wavelength [3]: 372 nm; Emission λem ([4]; 25 μM in ACN): 540 nm; Fluorescence quantum yield ([5]; Table S12): 1.5%; E, molar absorptivity (ε) [6]: 15385 M⁻¹ cm⁻¹
2 | 0.20 | 27.9 | 383 | 1.27 | 1.27 ± 0.01 | 410 | 436 | 620 | 640 | 640 | 204 | 210 | 0.6 | 13.5 | 14% | 36689 | 28639 | 420 ± 250 | Cc1c(C)n2c(/C=C/C=C/c3ccc(N(C)C)cc3)c(C)c(=O)n2c1=O [Compound 7m, 3-((1E,3E)-4-(4-(dimethylamino)phenyl)buta-1,3-dien-1-yl)-2,5,6-trimethyl-1H,7H-pyrazolo[1,2-a]pyrazole-1,7-dione] | 15 | 9 | λabs [3]: 436 nm; Absorbance Wavelength ([3]; Table 11): 418 nm; Stokes shift ([4]; ACN/PBS): 204 nm
3 | 0.15 | 32.7 | 476 | 2.27 | 2.27 ± 0.01 | 402 | 418 | 568 | 604 | 604 | 186 | 166 | 0.5 | 7.5 | about 7% | 30420 | 24742 | 1450 ± 430 | Cc1c(C)n2c(/C=C/c3ccc(N(C)C)cc3)c(C)c(=O)n2c1=O [Compound 7l, (E)-3-(4-(dimethylamino)styryl)-2,5,6-trimethyl-1H,7H-pyrazolo[1,2-a]pyrazole-1,7-dione] | 5 | 2 | Fluorescence QY [1, 10]: 32.7%; increase in QY with αS fibrils [1]: 218 fold; Relative Brightness [1, 12]: 476; increase in brightness in the presence of PFFs [1]: 476 fold; fluorescence turn-on with αS relative to Aβ1-42 [8]: 5.2 fold; fluorescence lifetime when bound to PFFs [2]: 2.27 ns; Fluorescence Lifetime ([2]; presence of αS PFFs (+)): 2.27 ns; λabs [3]: 418 nm; Absorbance Wavelength ([3]; Table S14): 418 nm; λabs, maximum absorption wavelength [3]: 393 nm; fluorescence turn-on with αS relative to tau [9]: 2.8 fold; Emission λem ([4]; 25 μM in ACN): 568 nm; Fluorescence quantum yield ([5]; Table S12): 7.5%; QY ([5]; listed as 5k): 7.5%; E, molar absorptivity (ε) [6]: 20071 M⁻¹ cm⁻¹
4 | 0.21 | 29.2 | 403 | 2.09 | 2.09 ± 0.01 | 378 | 386 | 565 | 603 | – | 217 | 187 | 1.0 | 6.9 | about 7% | 29562 | 28890 | 2450 ± 1240 | Cc1c(C)n2c(/C=C/c3ccc(N4CCOCC4)cc3)c(C)c(=O)n2c1=O [Compound 7k, (E)-2,3,6-trimethyl-5-(4-morpholinostyryl)-1H,7H-pyrazolo[1,2-a]pyrazole-1,7-dione] | 13 | 2 | –
